The NIST ThermoML archive (doi:10.1016/j.jct.2005.10.004)
Where “and” joins values, the source holds several entries; their conditions need not be identical. Identical values can stand only once.

Details: Liquid, Buoyancy - hydrostatic balance with magnetic suspension - one sinker

N#N [nitrogen]
Details | mass density
249.96 K, 5023.9 kPa | 69.8983 kg/m3
249.96 K, 5024.2 kPa | 69.9018 kg/m3
249.96 K, 10070 kPa | 141.612 kg/m3
249.96 K, 15267 kPa | 211.548 kg/m3
249.96 K, 15270 kPa | 211.579 kg/m3 and 211.588 kg/m3
249.96 K, 19857 kPa | 266.561 kg/m3
250 K, 4994.5 kPa | 69.4686 kg/m3
274.97 K, 10066 kPa | 125.016 kg/m3 and 125.014 kg/m3
274.97 K, 19871 kPa | 235.319 kg/m3
274.97 K, 19875 kPa | 235.358 kg/m3
299.97 K, 10974 kPa | 122.253 kg/m3
299.97 K, 13855 kPa | 152.56 kg/m3 and 152.561 kg/m3
299.97 K, 16780 kPa | 181.982 kg/m3
299.98 K, 16788 kPa | 182.05 kg/m3
399.99 K, 10101 kPa | 81.9701 kg/m3
399.99 K, 14807 kPa | 117.441 kg/m3
399.99 K, 17250 kPa | 135.043 kg/m3
400 K, 7435.4 kPa | 61.0376 kg/m3
400 K, 10100 kPa | 81.9663 kg/m3
400 K, 19953 kPa | 153.853 kg/m3
400 K, 19959 kPa | 153.899 kg/m3
